Test results reported in ChEMBL document CHEMBL1126437, “Synthesis and cytotoxicity of enantiomeric pairs of duocarmycin a and its 2-epimer” (Bioorg Med Chem Lett, 1992).
Converted amounts (≈) assume the structure as drawn.

System: P388
Test: In vitro evaluation for cytotoxicity against P388 murine leukemia.
Type: functional, cell-based, Mus musculus

Structure (SMILES) | IC50 (p388) [ng/mL] | IC50 (Mus musculus, P388, read-out: IC50) [ng/mL]
COC(=O)[C@]1(C)N=C2C(=O)C=C3N(C(=O)c4cc5cc(OC)c(OC)c(OC)c5[nH]4)C[C@H]4C[C@@]34C2=C1O | 0.002 (≈ 0.00394 nM) | –
COC(=O)[C@@]1(C)N=C2C(=O)C=C3N(C(=O)c4cc5cc(OC)c(OC)c(OC)c5[nH]4)C[C@@H]4C[C@]34C2=C1O | – | 0.3 (≈ 0.591 nM)
